According to patent publication US20230024192A1, “Citrate-Functionalized Polymeric Surfactants Based Upon Alkyl Polyglucosides” (Colonial Chemical, Inc., priority 2019, published 2023):

Tests used:
[1] = Salt curves, viscosity build in cleansing formulations (SLS- or AOS-based blends); type: physicochemical; conditions: incorporated into typical cleansing formulations with SLS or AOS, cocamidopropyl betaine, cocamide MEA; salt curves FIGS. 1 and 2
Description: The generalized cleansing formulations are shown in Table 1, where various anionic surfactants, or blends of anionic surfactants, were added to a betaine and an alkanolamide surfactant and water. The balance of the weight in these formulas is water. […] Salts curves were generated for both sulfate-free blends based on AOS, Sodium C14-16 Olefin Sulfonate (FIG. 2), as well as sodium lauryl sulfate-based blends (FIG. 1). The salt curves in FIG. 1 are for the following: 1) Sodium Lauryl Sulfate (SLS) alone: 2) Sodium Lauryl Sulfate:Water, 2:1; 3) Sodium Lauryl Sulfate:Disodium Laurylglucosides Hydroxypropyl Citrate 2:1; and 4) Sodium Lauryl Sulfate:Disodium Laurylglucosides Hydroxypropyl Citrate, 1:1. The salt curves in FIG. 2 are for the following: 1) Sodium C14-16 Olefin Sulfonate (AOS) alone: 2) Sodium C14-16 Olefin Sulfonate:Water, 2:1; 3) Sodium C14-16 Olefin Sulfonate:Disodium Laurylglucosides Hydroxypropyl Citrate, 2:1; and 4) Sodium C14-16 Olefin Sulfonate:Disodium Laurylglucosides Hydroxypropyl Citrate, 1:1. [table] […] Some formulations can achieve desired viscosity levels without any added salt, meeting the demand for that type of claim by some shampoo manufacturers.

[2] = test system: Zein; assay: Zein Test, irritation potential of surfactants / cleansing formulations by amount of zein solubilized; set-up: species or system corn; conditions: anionic cleanser, FIG. 3
Description: Surfactants of the current invention were tested for their ability to reduce the irritation potential of cleansing formulations. We used the Zein Test [referenced in J. Surfact.
The Zein test is intended for determining the irritation potential of a surfactant or surfactant-based product. Zein, a corn protein similar to keratin present in the skin and hair, is insoluble in water unless it is denatured by an irritant. In this test, the irritant is a surfactant or surfactant-based product, and irritation potential is predicted by the amount of zein solubilized.

viscosity build [1]: fast and high viscosity build
Substance: Disodium Laurylglucosides Hydroxypropyl Citrate
irritation potential in cleansing formulations (Zein Test) [2]: effective at reducing irritation potential
